According to patent US20160019374A1, “METHODS FOR ESTABLISHING COMBINATIONS OF KINASE INHIBITORS FOR THE TREATMENT OF MEDICAL CONDITIONS” (SALGOMED, INC., priority 2014, published 2016):

How the values were obtained:
[1] = test system: A549 (lung adenocarcinoma); assay: Kinase inhibitor screen, selectivity = IMR-90 to A549 viability ratio (ATPlite 1 Step); settings: single drugs at 1000 nM, 72 hours, 244 KIs screened, FIG. 2
Protocol: Cell lines IMR-90 (normal lung fibroblast) and A549 (lung adenocarcinoma) were cultured in RPMI 1640 (Hyclone) supplemented with 10% Canadian characterized fetal bovine serum (Hyclone), 1% 200 mM L-glutamine (Omega), and 1% penicillin/streptomycin (Omega). The media for the cells were renewed every 3 days and kept at 80-90% confluency. Cells were maintained in a humidified environment at 37° C. and 5% CO2.
IMR-90 (1500 cells/well) and A549 (750 cells/well) were seeded on 384-well microplates (Grenier Bio-One) and incubated for 3 hours before the addition of kinase inhibitor(s). The reason that IMR-90 was seeded at double the cell density of A549 is due to the difference in cell division. IMR-90's doubling time is 36-48 hours whereas A549's is 22 hours. […] Furthermore, both A549's and IMR-90's final confluency at 72 hrs is 90-95% and within the range of the ATPlite 1 step assay. ECHO 555 Liquid Handler (Labcyte) was used to dispense nanoliter volumes of each KI to 384-well plates with cells attached (wet dispense). The final volume in the plate is 40 uL and cells were incubated for 72 hours with KI treatment.
ATPlite 1 Step (Perkin Elmer) was used to evaluate the cell number and cytotoxicity. ATP measurements were done by dispensing 20 uL of the ATPlite 1 Step solution to each well to a final volume of 60 uL. The plate was placed on a shaker at 1100 rpm and the luminescence activity was detected by Analyst GT Plate Reader. The percent (%) of control is the quantity of ATPlite 1 step measurement of the treated versus the untreated wells of each individual cell type.
The 244 kinase inhibitors (KIs) of the EMD drug library were screened at 1000 nM individually and the treatment lasted for 72 hours.
where vN indicates the viability of normal cells (IMR90) after treatment, and vc the viability of cancer cells (A549) after treatment. […] For the other 243 KIs we used the standard dose of 1000 nM.

primary myoblasts = assay: Protection of primary myoblasts against 0.1% hypoxia (viability screen); type: cell-based; settings: single-drug screening of EMD library
Excerpt: We used our method to predict synergistic effects between four kinase inhibitors: G13, O20, I15, and K10. […] Out of 244 drugs from the EMD library of kinase inhibitors, we first selected 58 drugs that have a positive effect on cell survivability against hypoxia. Single-drug screening results with these drugs were used as a training set to build a regression model that uses the kinase catalytic activity as predictor of the viability. The model assumed a dependence of the viability Vii of the form of Equation (V)

Compound | selectivity rank in primary screen (IMR-90 to A549 viability ratio) [1] | selectivity rank in primary screen (IMR-90 to A549 viability ratio) ([1]; listed as PDK1/Akt1/Flt3 Dual Pathway Inhibitor) | protection of primary myoblasts against hypoxia (primary myoblasts)
NS(=O)(=O)c1ccc(N=Nc2c(O)[nH]c3ccc(Br)cc23)cc1 [D07, Cdk2 In. II] | top ten most selective |  | 
CC(C)c1nn(-c2c(Cl)cccc2Cl)c2nc(Cc3ccc(OCCO)cc3)[nH]c(=O)c12 [E20, Cdk/Crk In.] | top ten most selective |  | 
O=C1c2ccccc2-c2nc3nnnn3nc21 [A15, PDK1/Akt1/Flt3 Dual Pathway Inhibitor] | top ten most selective | top hit | 
COc1ccc2c(c1)/C(=C/c1cnc[nH]1)C(=O)N2 [O20, SU9516] | top ten most selective |  | protect primary myoblasts against 0.1% hypoxia
Nc1nc(Nc2ccc(S(N)(=O)=O)cc2)nn1C(=S)Nc1c(F)cccc1F [C16, Cdk1/2 In. III] | top ten most selective |  | 
Cc1ccc([N+](=O)[O-])cc1S(=O)(=O)N(C)/N=C/c1cnc2ccc(Br)cn12.Cl [L13, PI 3-Kα In. VIII] | top ten most selective |  | 
c1nc2nc(Nc3ccc(N4CCOCC4)cc3)nc(NC3CCCCC3)c2[nH]1 [N05, Reversine] | top ten most selective |  | 
Nc1cccc(-c2cc3c(Oc4cccc(O)c4)ncnc3[nH]2)c1 [M16, GSK3b In. XII, TWS119] | top ten most selective |  | 
Cc1cc(I)ccc1Nc1c(C(=O)NOCC2CC2)cc(F)c(F)c1F [H15, MEK1/2 In. II] | top ten most selective |  | 
O=C1c2ccccc2-[n+]2ccc3c([nH]c4ccccc43)c21 [G10, Fascaplysin, Synthetic] | top ten most selective |  | 
